Data taken from patent publication US7943382B2, “Method for inspecting fat-soluble vitamin and/or fat-soluble food factor by saliva analysis” (Mitsubishi Chemical Medience Corporation, priority 2004, dated 2011).

Key:
[1] = Correlation between the blood level and the content in saliva (CoQ10 ingestion tests part 1 and 2); assay type: in vivo, human
Procedure: 11 volunteers were made to ingest orally two tablets (CoQ10 content: 100 mg in two tablets) of Q10AA Multi (trade name, Shiseido Co., Ltd., hereinafter may be referred to “Supplement S”), a commercial CoQ10 supplement, at 7:00 every morning continuously for a week. Meanwhile, the contents of the fat-soluble vitamins and fat-soluble food factors in the Supplement S are 50 mg/tablet as for CoQ10, and 16.4 mg/tablet as for α-tocopherol. Then parotid saliva, directly collected saliva and heparinized plasma were collected from PM 4:00 to 5:00, three times, before and one week after ingestion and two weeks after discontinuation of ingestion. The volunteer had the mouth rinsed with water, and kept quiet on a chair for 5 minutes, while the volunteer accumulated saliva in the oral cavity and discharge to initialize the oral cavity, followed by collecting saliva. Approximately 1 ml of saliva accumulated in the oral cavity was collected as directly collected saliva. In order to collect saliva from the parotid gland, an absorbent cotton of 2 g was put beneath the tongue to prevent contamination with saliva from sublingual gland and submandibular gland, while the Saliva-sampler comprising a cotton saliva absorber and an indicator which informed termination of collection by color change was inserted between the teeth and the cheek near the open of the parotid gland. […]

[2] = CoQ10 level in parotid saliva of non-CoQ10 supplement-ingesting volunteers; assay type: in vivo, human; conditions: 55 non-CoQ10 supplement-ingesting volunteers; 2SD 13.5 ng/ml
Text: Therefore, a standard that can assess an individually suitable intake is required. It can be easily understood from FIG. 7 that the mean level and SD (standard deviation) of CoQ10 in parotid saliva of non-CoQ10 supplement-ingesting volunteers is useful as an example of the standard. A case that a volunteer, who is taking the CoQ10 supplement at an adequate time after meals, ingests it to increase the blood level up to a limit of the CoQ10 level of a non-ingesting volunteer, will be taken as an example for explanation. If a CoQ10 level in parotid saliva is far over the mean value +2SD, the intake is reduced, and if it is between the mean value −2SD and the mean value +2SD, the intake is increased, and the CoQ10 level is repeated inspected in saliva collected again at later dates, allowing the object to be achieved. In addition, the mean level and 2SD in FIG. 7 are obtained from the CoQ10 levels in parotid saliva of the 55 non-CoQ10 supplement-ingesting volunteers, the mean level is 17.0 ng/ml and the 2SD is 13.5 ng/ml.

[3] = Adsorption of CoQ10 in saliva to absorbent materials (no extraction); assay type: physicochemical
Procedure: In the method of preparing the specimens in example 2, the absorbent materials for saliva were weighed. 50 mg of an absorbent was soaked in 600 μl of saliva, 20 μl of saliva was fractionated to analyze the CoQ10 concentration in saliva transuaded from the absorbent, to which 180 μl of isopropanol was added, mixed, and centrifuged at 4° C. by 1000 G for 5 minutes to remove proteins, and 20 μl of the supernatant was subjected to HPLC. The results of analysis for CoQ10 are shown in Table 1 as “CoQ10 concentrations in saliva which was obtained by steps that 50 mg of the absorbent was soaked in 600 μl of saliva and the saliva was preserved in the interspace of the absorbent”. It took about 3 minutes to secrete 1 ml of parotid saliva for the volunteers who spent little time, and 10 minutes or longer for the volunteers who spent lots of time, therefore it is practically difficult to collect without the absorbent. In this case, the fat-soluble food factors and the fat-soluble vitamins are adsorbed by any absorbent materials for saliva such as polyester, cotton and acetylcellulose. Although it is lowly absorptive, polyurethane fills water in saliva as bound water, so that condensation is caused, resulting in apparently high level (Refer to Table 1). Consequently, the adsorbed component should be extracted. […] That means, a certain amount of saliva should be absorbed to a certain amount of absorbent in the oral cavity.

[4] = 50 mg Acetylcellulose soaked in 600 μl of saliva
[5] = 50 mg Cotton soaked in 600 μl of saliva
[6] = 50 mg Polyester soaked in 600 μl of saliva
[7] = 50 mg Polyurethane soaked in 600 μl of saliva

correlation between concentrations in parotid saliva and plasma ([1]; 112 specimens of examples 2 and 3, FIG. 5): good correlation | correlation between levels in directly collected saliva and plasma ([1]; FIG. 6): weak but recognizable correlation | mean CoQ10 level in parotid saliva [2]: 17.0 ng/mL | CoQ10 concentration in saliva preserved in the interspace of the absorbent [3, 4]: 25 ng/mL | Collection rate [3, 4]: 7.3% | CoQ10 concentration in saliva preserved in the interspace of the absorbent [3, 5]: 3.4 ng/mL | Collection rate [3, 5]: 10.2% | CoQ10 concentration in saliva preserved in the interspace of the absorbent [3, 6]: 19.6 ng/mL | Collection rate [3, 6]: 58.2% | CoQ10 concentration in saliva preserved in the interspace of the absorbent [3, 7]: 59.8 ng/mL | Collection rate [3, 7]: 178% | CoQ10 concentration in saliva ([3]; Saliva (control), no absorbent): 33.7 ng/mL | Collection rate ([3]; Saliva (control), no absorbent): 100%
Structure (SMILES): COC1=C(OC)C(=O)C(C/C=C(\C)CC/C=C(\C)CC/C=C(\C)CC/C=C(\C)CC/C=C(\C)CC/C=C(\C)CC/C=C(\C)CC/C=C(\C)CC/C=C(\C)CCC=C(C)C)=C(C)C1=O [CoQ10, Ubidecarenone]
